From patent US12508260B2, “Combination treatments” (Celex Oncology Innovations Limited, priority 2019, dated 2025)
Read-outs that look alike come from different tables or passages of the source.

Assays:
[1] = system: MDA-MB-231 cells; experiment: Matrigel invasion assay, MDA-MB-231 cells; assay type: cell-based, human
[2] = system: MDA-MB-468 cells; experiment: Cell viability, trypan blue dye exclusion, MDA-MB-468; assay type: cell-based, human; settings: normoxia or hypoxia, 48 h
Procedure: (§1) Cell viability was determined with the use of trypan blue dye exclusion assay. The assay was undertaken both in normoxic and hypoxic conditions. Upon completion of the treatment period, the media was aspirated and replaced with 0.2 mL of 0.4% trypan blue (Sigma-Aldrich) and 0.8 mL of DMEM media. The dish was mixed and incubated for 10 min in the humidified chamber. The trypan blue solution was replaced with 1 mL of DMEM and the dishes were observed under an inverted microscope (ID 03, Zeiss) at 100× magnification under phase contrast. The MTT assay was used to assess cell metabolic activity by determining the level of NAD (P) H-dependent cellular oxidoreductase enzymes. Cells were seeded in 24 well plates (Becton Dickinson, Oxford, UK) at 2×10^4 cells/well and were allowed to settle overnight before treatment. During the treatment, 500 μL of solution was added to each well and the assays were undertaken in both normoxic and hypoxic conditions. Upon treatment completion, 400 μL of DMEM and 100 μL of MTT was added into each well. […] The plates were rocked at 150 cycles/min for 5 min to mix the formazan with DMSO and the resulting formazan absorbance was measured at 570 nm with a multi-plate reader (ELX800 Universal Microplate Reader, Bio-Tek Instruments, UK). Two measurements for each result were recorded with a 5 min interval and the average was calculated.

[3] = system: nNav1.5 protein; experiment: Immunocytochemistry of nNav1.5 protein expression in MDA-MB-231 cells; assay type: cell-based, human; settings: hypoxia
Procedure: Cells were first seeded in 35×10 mm dishes (Becton Dickinson) at 5×10^5 cell/dish and left to settle overnight. The cells were pre-treated with treatment solutions for 32 h. The assay was only performed under hypoxia conditions. Before seeding the cells, 13 mm coverslips were placed in 24 well plates and 500 μL poly-L-lysine (Sigma) was added to each well for 20 min. After the period of pre-treatments, cells were trypsinized and seeded at 2×10^4 cells/coverslip in 500 μL of their respective treatment solutions. The plates were incubated under hypoxic condition and the assay was allowed for 16 h. At least two coverslips were prepared for each experiment. Upon assay completion, the coverslips were washed with phosphate buffered saline (PBS) before being fixed with 500 μL of 4% paraformaldehyde (Sigma) diluted in PBS. Fixation was for 10 min at room temperature on an orbital shaker. Coverslips were then washed 3×5 min in PBS. One of the coverslips for each condition was permeabilised with 500 μL 0.1% saponin/PBS solution (Sigma) for 4 min and 3×5 min of PBS washes followed. Permeabilised and non-permeabilised coverslips were all were treated with 500 μL 5% bovine serum albumin (BSA)/PBS (pH 7.4, v/v; Dako, Cambridge, UK) blocking agent for 1 h. Coverslips were transferred from the 24 well plate to a humidity chamber and were incubated with 100 μL of the primary antibody (NESOpAb) at a 1:200 dilution of the 0.7 mg/mL stock on an orbital shaker overnight at 3-5° C. The primary antibody used was NESOpAb which can specifically recognize and bind an external epitope sequence of the neonatal isoform of Nav1.5 […] et al., 2005). Coverslips were then rinsed with 3×5 min PBS and incubated with 100 μL of the secondary antibody, goat anti-rabbit IgG Alexa Fluor® 568, at a 1:100 concentration (Dako) for 1 h in darkness at room temperature. Coverslips for negative controls (which were incubated with secondary antibody only) were also prepared to check the specificity of the primary antibody. Coverslips were then rinsed with 3×5 min PBS+0.1% BSA and dipped in distilled water before being mounted on glass slides using mounting medium (Dako) and stored in darkness at 3-5° C. Images were taken with a Canon® digital camera inserted into an Axioimager immunofluorescence and phase contrast inverted microscope (Zeiss) and processed with Remote Capture Software® (Canon). ImageJ was used to analyse and quantify the corrected total cell florescence.

[4] = biological target: T1, VGSC (Homo sapiens, UniProt Q14524, S234P/V215L); experiment: Whole-cell patch clamp of VGSC current in MDA-MB-231 cells; assay type: cell-based
T1 construct: minoxidil on the VGSC activity in MDA-MB-231 cells; endogenous in cells; host or cells: MDA-MB-231 (human breast cancer cell line)
Procedure: Whole-cell patch clamp recordings are performed on cells under superfusion with mammalian physiological saline (MPS). Details of whole-cell recordings have been described previously (Fraser et al., 2003, 2005; Grimes et al., 1995; Laniado et al., 1997). In brief, MPS contains (in mM): 144 NaCl, 5.4 KCl, 1 MgCl2, 2.5 CaCl2), 5 HEPES and 5.6 D-glucose (adjusted to pH 7.3 with NaOH). Patch pipettes (tip resistances, ˜5 MΩ) are filled with a solution designed to block the outward K^+ currents (in mM): NaCl 5, CsCl 145, MgCl2 2, CaCl2) 1, HEPES 10 and EGTA 11, adjusted to pH 7.4 with 1 M CsOH. The estimated intracellular free Ca^2+ concentration is ˜15 nM (Laniado et al., 2001). A holding potential of −100 mV is applied. Standard voltage-clamp protocols are used to study the electrophysiological properties of the VGSC currents. Mainly the following characteristics are studied: peak current (and its density), current-voltage relationship (current normalized to peak), steady-state inactivation/“availability”=test current (I)/maximum current (Imax); recovery from inactivation=test current (It)/control current (Ic). For accurate determination of the acute effect of minoxidil on peak current block, only currents larger than 200 pA are used. Further details of the voltage-clamp protocols, data analysis and curve fitting have been published earlier (Onkal et al., 2008).

[5] = system: MDA-MB-231 cells; experiment: Cell viability, trypan blue dye exclusion, MDA-MB-231; assay type: cell-based, human; settings: normoxia or hypoxia, 48 h
Procedure: as §1

[6] = system: MDA-MB-468 cells; experiment: Matrigel invasion assay, MDA-MB-468 cells; assay type: cell-based, human; settings: hypoxia, FIG. 8
[7] = 50 μM minoxidil, short-term (acute) application, FIG. 11

COc1cc2ncnc(Nc3cccc(Cl)c3)c2cc1OC [AG1478, N-(3-chlorophenyl)-6,7-dimethoxy-4-quinazolinamine]
effect on invasiveness (normalized to control) ([1]; 10 μM AG1478, normoxia, FIG. 10): significant inhibitory effect

NC1=N[C@H](O)[C@H]2[C@H]3O[C@]4(O)O[C@@H]([C@@H](O)[C@@]2(N1)[C@@H]4O)[C@]3(O)CO [TTX, Tetrodotoxin]
effect on invasiveness (normalized to control) [1]: slight effect but this is not significant

Nc1cc(N2CCCCC2)nc(N)[n+]1[O-] [minoxidil, 6-(1-Piperidinyl)pyrimidine-2,4-diamine 3-oxide]
effect on cell viability ([2]; 50 μM minoxidil): no effect | effect on nNav1.5 protein expression ([3]; 50 μM minoxidil, non-permeabilized cells, FIG. 9a, P=0.58): neither minoxidil nor the drug combination had a significant effect | reduction of nNav1.5 protein expression ([3]; 50 μM minoxidil, permeabilized cells (total), FIG. 9b): 49% | effect on VGSC characteristics ([4]; 50 μM minoxidil, long-term (48 hour) treatment under hypoxia, then washing off, FIG. 12): no change | effect on peak current [4, 7]: no effect | effect on steady-state inactivation [4, 7]: shifted the steady-state inactivation to more hyperpolarised potentials | reduction of cell invasion ([1]; 2.5 μM minoxidil, hypoxia, FIG. 6a): 24% | reduction of cell invasion ([1]; 2.5 μM minoxidil, hypoxia, FIG. 6b): 41% | reduction of cell invasion ([1]; 2.5 μM minoxidil, hypoxia, FIG. 6c): 42% | reduction of cell invasion ([1]; 2.5 μM minoxidil, hypoxia, FIG. 7a): 49% | reduction of cell invasion ([1]; 2.5 μM minoxidil, hypoxia, set with 5 μM ranolazine (FIG. 4b/5b)): 48% | reduction of cell invasion ([1]; 2.5 μM minoxidil, normoxia, FIG. 7b): 53% | reduction of cell invasion ([1]; 5 μM minoxidil, hypoxia, FIG. 5a): 56% | reduction of cell invasion ([1]; 50 μM minoxidil, hypoxia, FIG. 5a): 89% | effect on cell viability ([5]; 50 μM minoxidil): no effect | reduction of cell invasion ([6]; 2.5 μM minoxidil): 44%

COc1ccccc1OCC(O)CN1CCN(CC(=O)Nc2c(C)cccc2C)CC1 (stereo not shown) [ranolazine, N-(2,6-Dimethylphenyl)-4-[2-hydroxy-3-(2-methoxyphenoxy)propyl]-1-piperazineacetamide]
effect on cell viability ([2]; 5 μM ranolazine): no effect | reduction of nNav1.5 protein expression ([3]; 5 μM ranolazine, non-permeabilized cells (plasma membrane), FIG. 9a): 30% | reduction of nNav1.5 protein expression ([3]; 5 μM ranolazine, permeabilized cells (total), FIG. 9b): 43% | effect on the transient ('peak') component of VGSC current ([4]; ranolazine at the concentrations used in the Examples (<<10 µM), FIG. 2): hardly any effect | reduction of cell invasion ([1]; 0.625 μM ranolazine, hypoxia, FIG. 6c): 24% | reduction of cell invasion ([1]; 1.25 μM ranolazine, hypoxia, FIG. 6b): 32% | reduction of cell invasion ([1]; 2.5 μM ranolazine, hypoxia, FIG. 6a): 36% | reduction of cell invasion ([1]; 2.5 μM ranolazine, hypoxia, FIG. 7a): 30% | effect on cell invasion ([1]; 2.5 μM ranolazine, normoxia, FIG. 7b): no effect | reduction of cell invasion ([1]; 5 μM ranolazine, hypoxia, FIG. 5a): 42% | reduction of cell invasion ([1]; 5 μM ranolazine, hypoxia, set with 2.5 μM minoxidil (FIG. 4b/5b)): 43% | effect on cell viability ([5]; 5 μM ranolazine): no effect | reduction of cell invasion ([6]; 2.5 μM ranolazine): 33%
